SMILES strings stand for the structures.

The results in this text go back to patent US5151502A, “Method for solubilizing membrane receptor proteins” (E. R. Squibb & Sons, Inc., priority 1991, dated 1992).

One series concerns the target T1, soluble AII receptor (Bos taurus, UniProt P25104).
T1 construct: from tissue; host or cells: bovine adrenal microsomal membranes, solubilized with CHAPS and treated with SM2 beads
T1 sequence (P25104 1-359): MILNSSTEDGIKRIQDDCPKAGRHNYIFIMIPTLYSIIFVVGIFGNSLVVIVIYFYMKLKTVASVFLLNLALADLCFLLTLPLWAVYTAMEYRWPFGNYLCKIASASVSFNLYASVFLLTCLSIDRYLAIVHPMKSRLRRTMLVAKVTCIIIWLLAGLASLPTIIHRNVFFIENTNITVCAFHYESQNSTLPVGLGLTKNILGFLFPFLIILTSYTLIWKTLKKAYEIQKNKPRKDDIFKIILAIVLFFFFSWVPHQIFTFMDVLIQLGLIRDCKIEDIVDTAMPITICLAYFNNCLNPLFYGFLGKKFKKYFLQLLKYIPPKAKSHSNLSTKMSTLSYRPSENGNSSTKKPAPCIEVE
As to the kind of experiment: [125I]-SI-AII radioligand binding, CHAPS-solubilized SM2-treated BAMM. Also on record: species or system bovine. The note with it: for Inhibition of [125I]-SI-AII binding (in words): competition experiments. How it is done:
(§1) All procedures were performed at 4° C. unless otherwise noted. Solubilization of specific binding activity was carried out by incubation of BAMM with 5 mM CHAPS. […] The solubilized membranes were centrifuged at 176,000×g (50,000 rpm in a Beckman 80Ti rotor) for 1 hour. The soluble BAMM preparation was stored at […] Prior to assay, soluble BAMM protein was filtered through a 0.22 μm filter and treated with SM2 beads. SM2 treatment proceeded with the addition of 1.1 g (w/v) of the beads and incubation for 1 to 2 hours with constant rotation. The beads were, removed under air pressure. Residual beads were removed from solution by microcentrifugation at 11,000×g (14,000 rpm.) for 15 minutes.
Assays were conducted in 1.2 ml tubes in a total assay volume of 200 μl. The incubation mixture contained 0.1 to 0.2 nM [^125 I]-SI-AII and incubation buffer (50 mM Tris, pH 7.4 at 4° C., 150 mM sodium chloride, 0.1% bovine serum albumin, 0.24 TI units/ml aprotinin, 0.1 mg/ml 1,10-phenanthroline). The binding reaction was initiated by the addition of 20 to 100 μg of BAMM or soluble BAMM diluted in incubation buffer. Binding proceeded at 37° C. for 2 hours with constant agitation. Reactions were terminated and bound and free radioligand separated by rapid filtration over double-thickness glass-fiber filters which had been presoaked in 0.3% polyethyleneimine in 50 mM Tris (pH 7.4) utilizing a Tomtec™96-well cell harvester set at four pulse washes. Filters were counted in a RIASTAT gamma counter or washed twice, microwave-dried, and counted in a Pharmacia 1205 Beta Plate flatbed scintillation counter in the presence of a dry scintillant (Pharmacia MeltiLex Scintillator Sheets™). Dissociation constants and slope factors were calculated according to Cheng and Prusoff (Biochem. Pharmacol. 22, 3099-3109; 1973) and Hill (J. Physiol. 40, 109-224; 1910), respectively. analysis of saturation binding data was performed using nonlinear regression least-square curve fitting to the nontransformed data or by Scathard transformation (Ann. N.Y.Acad. Sci., 51, 660672;1949).

For another series, the system named is AII receptor. The series can be described thus: Recovery of solubilized [125I]-SI-AII binding activity from BAMM. Also noted: species or system bovine. Conditions: DTNB 0.1 mM added to BAMM before solubilization; means ± standard errors, n = 4. How it is done:
as §1
Assays were conducted in 1.2 ml tubes in a total assay volume of 200 μl. […] Filters were counted in a RIASTAT gamma counter or washed twice, microwave-dried, and counted in a Pharmacia 1205 Beta Plate flatbed scintillation counter in the presence of a dry scintillant (Pharmacia MeltiLex Scintillator Sheets™). Dissociation constants and slope factors were calculated according to Cheng and Prusoff (Biochem. Pharmacol. 22, 3099-3109; 1973) and Hill (J. Physiol. 40, 109-224; 1910), respectively. analysis of saturation binding data was performed using nonlinear regression least-square curve fitting to the nontransformed data or by Scathard transformation (Ann. N.Y.Acad. Sci., 51, 660672;1949).

The target in a further series is T2, membrane AII receptor (Bos taurus, UniProt P25104).
T2 construct: Aliquots (5 mg/ml) of the bovine adrenal microsomal membranes (BAMM) were stored; from tissue; host or cells: bovine adrenal, microsomal membranes
T2 sequence (P25104 1-359): T1 sequence (P25104 1-359)
The series can be described thus: [125I]-SI-AII radioligand binding, bovine adrenal microsomal membranes (BAMM).

Procedure for membrane AII receptor: All the procedures were performed at 4° C. unless otherwise indicated. Bovine adrenals were cleaned of connective tissue and fat and were minced in 10 volumes of homogenization buffer (10 mM Tris, pH 7.4 at 4° C. containing 0.25M sucrose and 1 mM ethylenediaminetetraacetic acid). The minced tissue was homogenized using a Brinkmann polytron homogenizer (five ten second bursts at setting #8). The homogenate was centrifuged at 3,000×g (5,000 rpm) in a Sorvall SS34 rotor) for 10 minutes and the supernatant filtered through 3 layers of cheesecloth. The filtrate was centrifuged at 12,000×g (10,000 rpm in a Sorvall SS34 rotor) for 15 minutes. […]

In the case of `O[C@H](CS)[C@H](O)CS` (racemic) [DTT, dithiothreitol], the inhibition (as a rule, the drop in the measured response relative to a control, in per cent) at 5000 µM at soluble AII receptor is ~90%. Also, on soluble AII receptor (read-out: DTT concentration giving 50% reduction in ligand activity), the IC50 was 500 to 1000 µM.
On to `O=C(O)c1cc(SSc2ccc([N+](=O)[O-])c(C(=O)O)c2)ccc1[N+](=O)[O-]` [DTNB, dithionitrobenzoic acid], for which the “% recovery of solubilized AII receptor” value in the series with AII receptor is 11.5 ± 1.5%.
As for `CCCCc1nc(Cl)c(CO)n1Cc1ccc(-c2ccccc2-c2nn[nH]n2)cc1` [DuP 753], the Kd (commonly the free concentration of one partner at which half of the binding sites on the other are occupied at equilibrium, for simple one-to-one binding) on soluble AII receptor came to 2.54 µM; on membrane AII receptor, 0.202 ± 0.022 µM. For the same molecule, at soluble AII receptor (SM2-treated soluble receptors), the “Inhibition of [125I]-SI-AII binding (in words)” value is “complete”. In addition, the “Slope Factor” value on soluble AII receptor (Soluble preparation, means ± SEM, n = 3 to 5) was 0.51 ± 0.05; on membrane AII receptor (BAMM, means ± SEM, n = 3 to 5) it was 0.91 ± 0.03.
Turning to `Cc1cc(Cn2cnc3c2CC(C(=O)O)N(C(=O)C(c2ccccc2)c2ccccc2)C3)ccc1N` (stereo not shown) [PD123177], the “Inhibition of [125I]-SI-AII binding (in words)” value on soluble AII receptor (SM2-treated soluble receptors) is on record as “negligible”. The Ki at soluble AII receptor (SM2-treated soluble receptors, read-out: inhibition constant) is > 100 µM.
